The numbers were not newly measured in US20150335557A1, “ANTI-PLAQUE ORAL COMPOSITIONS” (priority 2012, published 2015), which cites them from elsewhere.

For this data set the following is noted: @ 79° F.

For `CS(C)(=O)=O` [MSM, methylsulfonylmethane], the water solubility was 34 % w/v.
